Results published in paper PMC6650905, “Development of a Novel Series of Anticancer and Antidiabetic: Spirothiazolidines Analogs” (Molecules, 2019).

What was measured:
[1] = target: T1, alpha-amylase (α–amylase); assay: DNS colorimetric assay; assay type: biochemical; details: starch 0.5%, 20 mM phosphate pH 6.9, 25 °C, 10 min preincubation
T1 construct: commercial preparation from Sigma-Aldrich

[2] = target: T2, alpha-glucosidase (Saccharomyces cerevisiae); assay: p-nitrophenol release, absorbance […] nm; assay type: biochemical; details: p-nitrophenyl alpha-D-glucopyranoside 5 mM stock (20 μL), 100 mM phosphate pH 6.8, 37 °C, 15 min preincubation
T2 construct: gene MAL12; commercial preparation from Sigma-Aldrich

** IC50 [1] [µg/mL] | ** IC50 [2] [µg/mL] | Compound
297.8 | 120.22 | Nc1ccc(N2C(=O)CSC23CCCCC3)cc1 [compound 1, 4-(4-aminophenyl)-1-thia-4-azaspiro[4.5]decan-3-one]
421.42 | 363.67 | NN=C1CSC2(CCCCC2)N1c1ccc(N)cc1 [compound 2, 4-(3-hydrazono-1-thia-4-azaspiro[4.5]decan-4-yl)aniline]
58.85 | 52.47 | Nc1ccc(N2c3[nH]nc(-c4ccc(Cl)cc4)c3SC23CCCCC3)cc1 [compound 9, 4-(3′-(4-chlorophenyl)-spiro[cyclohexane-1,5′-pyrazolo[3,4-d]thiazol]-6′ (1′H)-yl)aniline]

Second part, the molecule before the results:

Compound | ** IC50 [1] [µg/mL] | ** IC50 [2] [µg/mL]
N#Cc1c(N)nc2c(c1-c1ccc(Cl)cc1)SC1(CCCCC1)N2c1ccc(N)cc1 [compound 6, 5′-amino-3′-(4-aminophenyl)-7′-(4-chlorophenyl)-3′H-spiro[cyclohexane-1,2′-thiazolo[4,5-b]pyridine]-6′-carbonitrile] | 94.9 | 63.6
N#Cc1c(-c2ccc(Cl)cc2)c2c([nH]c1=O)N(c1ccc(N)cc1)C1(CCCCC1)S2 [compound 7, 3′-(4-aminophenyl)-7′-(4-chlorophenyl)-5′-oxo-4′,5′-dihydro-3′H-spiro[cyclohexane-1,2′-thiazolo[4,5-b]pyridine]-6′-carbonitrile] | 239.37 | 117.36
Nc1ccc(N2C(=O)C(=Cc3ccc(Cl)cc3)SC23CCCCC3)cc1 [compound 8, 4-(4-aminophenyl)-2-(4-chlorobenzylidene)-1-thia-4-azaspiro[4.5]decan-3-one] | 199.01 | 114.45
N#Cc1c(-c2ccc(Cl)cc2)c2c(n(CCO)c1=O)N(c1ccc(N)cc1)C1(CCCCC1)S2 [compound 13, 3′-(4-aminophenyl)-7′-(4-chlorophenyl)-4′-(2-hydroxyethyl)-5′-oxo-4′,5′-dihydro-3′H-spiro[cyclohexane-1,2′-thiazolo[4,5-b]pyridine]-6′-carbonitrile] | 271.3 | 118.11
CCOC(=O)Cn1c2c(c(-c3ccc(Cl)cc3)c(C#N)c1=O)SC1(CCCCC1)N2c1ccc(N)cc1 [compound 16, Ethyl 2-(3′-(4-aminophenyl)-7′-(4-chlorophenyl)-6′-cyano-5′-oxo-3′,5′-dihydro-4′H-spiro [cyclohexane-1,2′-thiazolo[4,5-b]pyridin]-4′-yl)acetate] | > 1000 | 570.4
